According to ChEMBL document CHEMBL4308852, “GNE-371, a Potent and Selective Chemical Probe for the Second Bromodomains of Human Transcription-Initiation-Factor TFIID Subunit 1 and Transcription-Initiation-Factor TFIID Subunit 1-like” (J Med Chem, 2018):
Converted amounts (≈) assume the structure as drawn. The source made the active and inactive calls. No cut-off for these calls is given here.

Columns and labels:
[1] = target: T1, Bromodomain-containing protein 4 (Homo sapiens, UniProt O60885); assay: Inhibition of recombinant His-tagged BRD4 bromodomain 1 (unknown origin) after 10 mins by TR-FRET assay
[2] = target: T1, Bromodomain-containing protein 4; assay: Inhibition of recombinant His-tagged BRD4 bromodomain 2 (unknown origin) after 10 mins by TR-FRET assay
[3] = target: T2, Transcription initiation factor TFIID subunit 1 (Homo sapiens, UniProt P21675); assay: Inhibition of recombinant His-tagged TAF1 bromodomain 2 (unknown origin) after 10 mins by TR-FRET assay
T2 sequence (P21675 whole entry): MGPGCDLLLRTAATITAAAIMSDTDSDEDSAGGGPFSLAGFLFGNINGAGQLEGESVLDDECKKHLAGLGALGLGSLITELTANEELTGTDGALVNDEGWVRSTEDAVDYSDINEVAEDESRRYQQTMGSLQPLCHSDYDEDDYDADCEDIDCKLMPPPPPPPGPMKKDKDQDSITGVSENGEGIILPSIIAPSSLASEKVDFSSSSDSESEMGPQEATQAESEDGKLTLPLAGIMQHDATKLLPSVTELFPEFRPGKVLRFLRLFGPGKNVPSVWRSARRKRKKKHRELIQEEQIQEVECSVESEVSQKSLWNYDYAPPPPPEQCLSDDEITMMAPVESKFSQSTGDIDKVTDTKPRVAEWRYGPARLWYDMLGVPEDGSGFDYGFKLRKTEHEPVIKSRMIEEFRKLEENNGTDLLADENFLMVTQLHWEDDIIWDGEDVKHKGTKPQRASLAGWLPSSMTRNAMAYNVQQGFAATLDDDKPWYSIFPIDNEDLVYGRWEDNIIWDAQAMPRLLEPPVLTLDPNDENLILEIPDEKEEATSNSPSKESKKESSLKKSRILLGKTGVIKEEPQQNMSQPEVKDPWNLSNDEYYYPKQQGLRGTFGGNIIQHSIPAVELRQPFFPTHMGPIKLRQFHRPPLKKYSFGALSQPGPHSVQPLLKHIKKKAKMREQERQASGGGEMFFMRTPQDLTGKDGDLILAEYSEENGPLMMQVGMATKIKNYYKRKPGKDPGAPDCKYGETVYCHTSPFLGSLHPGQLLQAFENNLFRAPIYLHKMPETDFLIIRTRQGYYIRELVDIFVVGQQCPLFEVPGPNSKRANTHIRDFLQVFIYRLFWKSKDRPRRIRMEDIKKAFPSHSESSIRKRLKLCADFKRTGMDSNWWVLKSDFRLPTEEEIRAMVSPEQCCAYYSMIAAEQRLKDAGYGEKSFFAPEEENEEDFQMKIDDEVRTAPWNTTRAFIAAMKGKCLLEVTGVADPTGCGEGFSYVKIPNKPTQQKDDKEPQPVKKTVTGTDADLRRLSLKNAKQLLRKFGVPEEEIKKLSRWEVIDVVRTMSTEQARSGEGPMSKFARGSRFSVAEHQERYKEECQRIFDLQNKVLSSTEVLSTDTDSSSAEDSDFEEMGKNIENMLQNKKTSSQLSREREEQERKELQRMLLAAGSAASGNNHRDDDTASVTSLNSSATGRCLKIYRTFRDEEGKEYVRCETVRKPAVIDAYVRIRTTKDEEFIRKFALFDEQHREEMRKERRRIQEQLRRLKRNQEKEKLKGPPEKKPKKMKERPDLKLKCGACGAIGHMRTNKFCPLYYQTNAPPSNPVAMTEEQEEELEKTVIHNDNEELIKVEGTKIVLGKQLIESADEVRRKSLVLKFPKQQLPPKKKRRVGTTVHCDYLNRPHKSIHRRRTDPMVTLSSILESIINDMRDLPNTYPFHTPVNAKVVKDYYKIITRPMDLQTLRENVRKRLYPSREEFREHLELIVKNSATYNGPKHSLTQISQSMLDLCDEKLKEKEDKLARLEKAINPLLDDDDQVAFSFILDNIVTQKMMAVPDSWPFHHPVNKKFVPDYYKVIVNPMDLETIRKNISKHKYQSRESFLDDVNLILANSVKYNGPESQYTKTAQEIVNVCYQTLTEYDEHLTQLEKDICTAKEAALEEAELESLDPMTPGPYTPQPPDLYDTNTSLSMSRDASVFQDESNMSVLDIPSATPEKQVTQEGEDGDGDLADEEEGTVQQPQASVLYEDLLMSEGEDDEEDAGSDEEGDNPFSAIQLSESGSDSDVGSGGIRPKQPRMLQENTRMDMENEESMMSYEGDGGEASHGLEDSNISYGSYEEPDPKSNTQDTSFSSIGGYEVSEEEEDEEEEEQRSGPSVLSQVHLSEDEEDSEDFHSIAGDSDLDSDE

[4] = target: T2, Transcription initiation factor TFIID subunit 1; assay: Inhibition of recombinant His-tagged TAF1 bromodomain 1 (unknown origin) after 10 mins by TR-FRET assay
[5] = target: T3, Chromatin remodeling regulator CECR2 (Homo sapiens, UniProt Q9BXF3); assay: Inhibition of recombinant His-tagged CECR2 (unknown origin) after 10 mins by TR-FRET assay
T3 sequence (Q9BXF3 whole entry): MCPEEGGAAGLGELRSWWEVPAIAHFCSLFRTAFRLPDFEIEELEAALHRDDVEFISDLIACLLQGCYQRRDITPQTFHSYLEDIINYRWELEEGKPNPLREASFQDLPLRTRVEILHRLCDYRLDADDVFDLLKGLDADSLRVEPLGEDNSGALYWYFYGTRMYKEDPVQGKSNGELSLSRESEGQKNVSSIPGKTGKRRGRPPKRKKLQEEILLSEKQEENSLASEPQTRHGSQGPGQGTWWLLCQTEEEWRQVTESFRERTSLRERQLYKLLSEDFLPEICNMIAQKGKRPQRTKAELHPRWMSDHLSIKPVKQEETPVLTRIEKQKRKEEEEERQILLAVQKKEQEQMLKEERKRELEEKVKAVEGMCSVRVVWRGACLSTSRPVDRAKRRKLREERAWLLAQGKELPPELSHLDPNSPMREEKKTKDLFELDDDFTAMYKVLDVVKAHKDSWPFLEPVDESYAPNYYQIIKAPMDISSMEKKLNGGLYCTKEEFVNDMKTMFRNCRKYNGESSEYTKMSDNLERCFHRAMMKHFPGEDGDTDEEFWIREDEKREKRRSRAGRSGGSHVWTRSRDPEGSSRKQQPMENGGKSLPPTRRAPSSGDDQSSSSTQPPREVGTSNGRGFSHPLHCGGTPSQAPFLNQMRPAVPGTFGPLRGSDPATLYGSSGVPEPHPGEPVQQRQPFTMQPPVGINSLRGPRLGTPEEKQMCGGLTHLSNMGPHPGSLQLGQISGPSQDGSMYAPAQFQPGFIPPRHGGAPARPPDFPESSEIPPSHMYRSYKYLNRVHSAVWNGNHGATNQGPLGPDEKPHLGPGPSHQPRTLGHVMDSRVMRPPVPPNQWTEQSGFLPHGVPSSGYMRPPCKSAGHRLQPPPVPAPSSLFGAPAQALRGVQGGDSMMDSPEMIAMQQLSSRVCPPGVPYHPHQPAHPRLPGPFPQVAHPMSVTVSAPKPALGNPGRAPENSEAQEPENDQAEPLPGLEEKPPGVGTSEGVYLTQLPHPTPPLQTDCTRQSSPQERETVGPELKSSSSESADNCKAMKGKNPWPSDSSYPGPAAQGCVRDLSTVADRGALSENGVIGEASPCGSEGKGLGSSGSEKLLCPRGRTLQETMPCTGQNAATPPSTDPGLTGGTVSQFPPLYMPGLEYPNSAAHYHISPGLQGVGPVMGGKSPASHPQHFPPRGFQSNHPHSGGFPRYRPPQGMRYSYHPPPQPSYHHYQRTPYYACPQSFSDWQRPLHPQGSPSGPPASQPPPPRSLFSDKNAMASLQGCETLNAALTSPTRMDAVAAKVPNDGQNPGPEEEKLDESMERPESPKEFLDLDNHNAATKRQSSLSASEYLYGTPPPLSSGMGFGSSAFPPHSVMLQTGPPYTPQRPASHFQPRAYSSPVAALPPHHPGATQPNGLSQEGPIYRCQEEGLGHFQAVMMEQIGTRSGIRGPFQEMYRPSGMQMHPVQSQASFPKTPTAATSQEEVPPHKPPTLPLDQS

CREB-binding protein = CREB-binding protein (Homo sapiens, UniProt Q92793); assay: Inhibition of recombinant His-tagged CBP (unknown origin) after 10 mins by TR-FRET assay
[6] = target: T1, Bromodomain-containing protein 4; assay: Binding affinity to recombinant human full length DNA-tagged BRD4 short isoform expressed in bacterial expression system by bromoscan assay
[7] = target: Transcription initiation factor TFIID subunit 1-like (Homo sapiens, UniProt Q8IZX4); assay: Binding affinity to recombinant human full length DNA-tagged TAF1L bromodomain 2 (1523 to 1654 residues) expressed in bacterial expression system by bromoscan assay
NCI-H23 = assay: Synergistic cytotoxicity against human H23 cells assessed as reduction in cell viability at 100 nM after 48 hrs in presence of BRD4 inhibitor JQ1 by celltiter-glo assay; format: functional, cell-based
[8] = Kinetic solubility of the compound; format: physicochemical; conditions: read-out: Kinetic_solubility
[9] = target: T3, Chromatin remodeling regulator CECR2
[10] = target: T1, Bromodomain-containing protein 4; conditions: 20 uM

SMILES | IC50 [1] | IC50 [2] | IC50 [3] | IC50 [4] | IC50 [5] | also measured
C=CCCn1cc(-c2cnc(OCC)c(C(=O)N3CCOCC3)c2)c2cc[nH]c2c1=O | 6.3 µM | 7.6 µM | 0.004 µM | 5.3 µM | 0.59 µM | 
C=CCCn1cc(-c2cnc(OC)c(C(=O)N3CCOCC3)c2)c2cc[nH]c2c1=O | 8.6 µM | 9.6 µM | 0.007 µM | 6.9 µM | 1 µM | 
C=CCCn1cc(-c2cc(OC(F)F)cc(C(=O)N3CCOCC3)c2)c2cc[nH]c2c1=O | 0.6 µM | 9 µM |  |  |  | 
C=CCCn1cc(-c2cccc(C(=O)N(C)C3CCCCC3)c2)c2cc[nH]c2c1=O | 0.75 µM | 2.4 µM | 0.067 µM | 13 µM | 4 µM | IC50 (CREB-binding protein): > 20 µM
C=CCCn1cc(-c2cccc(C(=O)N3CCN(CCO)CC3)c2)c2cc[nH]c2c1=O | 3.2 µM | 5 µM | 0.083 µM | 14 µM | 1.1 µM | IC50 (CREB-binding protein): > 20 µM
C=CCCn1cc(-c2cc(C(=O)N3CCOCC3)cc3c2ncn3C)c2cc[nH]c2c1=O | > 20 µM | > 20 µM |  |  | 1.2 µM | Kd [6]: 8.9 µM; Kd [7]: 0.005 µM; Activity (NCI-H23): Active; solubility kinetic [8]: 121 µM (≈ 52.2 µg/mL); Kd [9]: 1.2 µM; inhibition [10]: inactive

Continued, in another order:

IC50 [1] | IC50 [2] | SMILES | IC50 [3] | IC50 [4] | IC50 [5] | also measured
3.4 µM | 6.8 µM | C=CCCn1cc(-c2cc(C(=O)N3CCOCC3)c3ncn(CC)c3c2)c2cc[nH]c2c1=O |  |  |  | 
2 µM | 1 µM | C=CCCn1cc(-c2cc(C(=O)N3CCOCC3)c3c(c2)ncn3CC)c2cc[nH]c2c1=O | 0.016 µM | > 20 µM | 2.6 µM | 
2.3 µM | 4.4 µM | C=CCCn1cc(-c2cc(C(=O)N3CCOCC3)c3nc[nH]c3c2)c2cc[nH]c2c1=O |  |  |  | 
1.8 µM | 5 µM | C=CCCn1cc(-c2cc(C#N)cc(C(=O)N3CCOCC3)c2)c2cc[nH]c2c1=O |  |  |  | 
8.2 µM | 12 µM | C=CCCn1cc(-c2cc(C(=O)N3CCOCC3)c3ncn(C)c3c2)c2cc[nH]c2c1=O |  |  | 0.36 µM | 
3.6 µM | 4.4 µM | C=CCCn1cc(-c2cc(C(=O)N3CCOCC3)c3c(c2)ncn3C)c2cc[nH]c2c1=O |  |  | 0.23 µM | 
7.9 µM | 17 µM | C=CCCn1cc(-c2cc(F)c(F)c(C(=O)N3CCOCC3)c2)c2cc[nH]c2c1=O |  |  |  | 
> 20 µM | > 20 µM | C=CCCn1cc(-c2cc(C(=O)N3CCOCC3)cc3[nH]cnc23)c2cc[nH]c2c1=O |  |  |  | 
